Data taken from patent US8415469B2, “Compounds and methods for kinase modulation, and indications therefor” (Plexxikon Inc., priority 2005, dated 2013).

Columns and labels:
Format in all cases: biochemical
Fms = target: T1, Fms (Homo sapiens, UniProt P07333); test: AlphaScreen kinase assay, Fms; conditions: read-out: IC50, activity toward kinase Fms
T1 construct: purchased Upstate Biotechnology

B-Raf V600E = target: T2, B-Raf V600E (Homo sapiens, UniProt P15056, V600E); test: AlphaScreen kinase assay, B-Raf V600E; conditions: read-out: IC50, activity toward kinase B-Raf V600E
T2 construct: P4254. pFastBacBD-CDC37 BRAF D437-K722-X, V600E; His6 with pFastBac HT leader (TEV site) (N); made in house; host or cells: Sf9 (baculovirus; chaperone CDC37 co-expressed)

FGFR1 = target: T3, FGFR1 (Homo sapiens, UniProt P11362, C488A/C584S); test: AlphaScreen kinase assay, FGFR1; conditions: read-out: IC50, activity toward kinase FGFR
T3 construct: P1351.pET N6 BI-PTP FGFR A458-E765-X C488A, C584S; made in house; host or cells: E. coli (PTP1B co-expressed)

Yes = target: T4, Yes (Homo sapiens, UniProt P07947); test: Z'-Lyte FRET kinase assay (Invitrogen), Yes; conditions: read-out: IC50, activity toward kinase Yes
T4 construct: purchased Invitrogen (Carlsbad, Calif.), screening service
Procedure, shortened: (§1)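 Under a compound concentration curve, the kinase acted on a dual-labelled peptide at 2 μM with ATP at 10 μM for one hour at ambient temperature (buffer pH 7.5, 1% DMSO). Phosphorylation extent came from the emission ratio after protease development.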

Kit = target: T5, Kit (Homo sapiens, UniProt P10721); test: AlphaScreen kinase assay, Kit; conditions: read-out: IC50, activity toward kinase Kit
T5 construct: P1332.N6 BI PTP KIT M552-K948-X COD; His6 (N); made in house; host or cells: E. coli (PTP1B co-expressed)

EphB2 = target: T6, EphB2 (Homo sapiens, UniProt P29323); test: Z'-Lyte FRET kinase assay (Invitrogen), EphB2; conditions: read-out: IC50, activity toward kinase EphB2
T6 construct: purchased Invitrogen (assay run by Invitrogen)
T6 sequence (P29323 19-1055): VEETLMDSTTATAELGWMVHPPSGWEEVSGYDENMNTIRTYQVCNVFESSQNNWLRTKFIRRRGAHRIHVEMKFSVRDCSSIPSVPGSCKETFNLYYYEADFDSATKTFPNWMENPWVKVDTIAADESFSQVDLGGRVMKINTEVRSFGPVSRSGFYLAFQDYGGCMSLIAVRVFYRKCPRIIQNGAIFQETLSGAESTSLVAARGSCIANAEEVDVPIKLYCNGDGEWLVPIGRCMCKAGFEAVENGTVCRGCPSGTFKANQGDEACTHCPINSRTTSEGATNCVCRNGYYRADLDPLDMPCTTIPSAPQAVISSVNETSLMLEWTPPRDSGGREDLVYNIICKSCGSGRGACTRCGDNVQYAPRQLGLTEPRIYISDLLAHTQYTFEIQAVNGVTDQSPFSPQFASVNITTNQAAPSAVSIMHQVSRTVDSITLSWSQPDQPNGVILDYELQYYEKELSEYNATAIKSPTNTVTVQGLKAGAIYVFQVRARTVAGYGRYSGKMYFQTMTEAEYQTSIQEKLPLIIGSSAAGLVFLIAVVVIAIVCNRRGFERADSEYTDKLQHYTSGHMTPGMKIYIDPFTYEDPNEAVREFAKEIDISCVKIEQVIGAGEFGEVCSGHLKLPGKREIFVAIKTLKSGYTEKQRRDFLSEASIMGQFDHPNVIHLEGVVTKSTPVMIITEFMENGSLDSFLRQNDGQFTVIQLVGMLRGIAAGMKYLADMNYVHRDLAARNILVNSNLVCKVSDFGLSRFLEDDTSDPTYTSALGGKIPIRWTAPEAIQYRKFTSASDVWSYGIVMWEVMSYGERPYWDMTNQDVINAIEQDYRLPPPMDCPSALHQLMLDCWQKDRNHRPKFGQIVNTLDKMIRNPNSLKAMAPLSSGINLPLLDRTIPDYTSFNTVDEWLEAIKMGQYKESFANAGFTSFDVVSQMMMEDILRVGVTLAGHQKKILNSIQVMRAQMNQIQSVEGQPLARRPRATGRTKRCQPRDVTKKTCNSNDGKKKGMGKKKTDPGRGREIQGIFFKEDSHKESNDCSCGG
Procedure, shortened: as §1

B-Raf = target: T7, B-Raf (Homo sapiens, UniProt P15056); test: AlphaScreen kinase assay, B-Raf; conditions: read-out: IC50, activity toward kinase B-Raf
T7 construct: purchased Upstate Biotechnology

Measured: IC50

T7 sequence (P15056 whole entry): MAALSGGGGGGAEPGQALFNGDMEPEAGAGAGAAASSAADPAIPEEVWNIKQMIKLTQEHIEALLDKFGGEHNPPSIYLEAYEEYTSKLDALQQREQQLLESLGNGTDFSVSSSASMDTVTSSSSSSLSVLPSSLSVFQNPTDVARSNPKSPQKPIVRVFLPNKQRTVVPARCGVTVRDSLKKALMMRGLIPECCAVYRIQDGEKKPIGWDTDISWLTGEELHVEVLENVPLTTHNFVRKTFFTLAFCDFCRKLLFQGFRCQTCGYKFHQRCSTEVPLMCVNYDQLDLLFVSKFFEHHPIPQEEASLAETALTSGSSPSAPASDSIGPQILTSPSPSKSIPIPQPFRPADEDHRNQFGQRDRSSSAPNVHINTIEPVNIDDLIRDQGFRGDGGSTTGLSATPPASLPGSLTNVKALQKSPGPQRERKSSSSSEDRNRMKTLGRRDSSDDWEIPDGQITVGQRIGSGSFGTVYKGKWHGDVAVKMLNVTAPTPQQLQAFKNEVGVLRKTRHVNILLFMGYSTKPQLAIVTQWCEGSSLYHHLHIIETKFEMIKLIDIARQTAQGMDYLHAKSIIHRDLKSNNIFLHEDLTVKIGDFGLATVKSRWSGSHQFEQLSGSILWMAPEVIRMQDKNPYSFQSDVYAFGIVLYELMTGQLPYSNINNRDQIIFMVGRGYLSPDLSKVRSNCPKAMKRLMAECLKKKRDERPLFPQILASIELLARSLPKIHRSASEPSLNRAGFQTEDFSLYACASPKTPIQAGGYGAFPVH
T1 sequence (P07333 20-972): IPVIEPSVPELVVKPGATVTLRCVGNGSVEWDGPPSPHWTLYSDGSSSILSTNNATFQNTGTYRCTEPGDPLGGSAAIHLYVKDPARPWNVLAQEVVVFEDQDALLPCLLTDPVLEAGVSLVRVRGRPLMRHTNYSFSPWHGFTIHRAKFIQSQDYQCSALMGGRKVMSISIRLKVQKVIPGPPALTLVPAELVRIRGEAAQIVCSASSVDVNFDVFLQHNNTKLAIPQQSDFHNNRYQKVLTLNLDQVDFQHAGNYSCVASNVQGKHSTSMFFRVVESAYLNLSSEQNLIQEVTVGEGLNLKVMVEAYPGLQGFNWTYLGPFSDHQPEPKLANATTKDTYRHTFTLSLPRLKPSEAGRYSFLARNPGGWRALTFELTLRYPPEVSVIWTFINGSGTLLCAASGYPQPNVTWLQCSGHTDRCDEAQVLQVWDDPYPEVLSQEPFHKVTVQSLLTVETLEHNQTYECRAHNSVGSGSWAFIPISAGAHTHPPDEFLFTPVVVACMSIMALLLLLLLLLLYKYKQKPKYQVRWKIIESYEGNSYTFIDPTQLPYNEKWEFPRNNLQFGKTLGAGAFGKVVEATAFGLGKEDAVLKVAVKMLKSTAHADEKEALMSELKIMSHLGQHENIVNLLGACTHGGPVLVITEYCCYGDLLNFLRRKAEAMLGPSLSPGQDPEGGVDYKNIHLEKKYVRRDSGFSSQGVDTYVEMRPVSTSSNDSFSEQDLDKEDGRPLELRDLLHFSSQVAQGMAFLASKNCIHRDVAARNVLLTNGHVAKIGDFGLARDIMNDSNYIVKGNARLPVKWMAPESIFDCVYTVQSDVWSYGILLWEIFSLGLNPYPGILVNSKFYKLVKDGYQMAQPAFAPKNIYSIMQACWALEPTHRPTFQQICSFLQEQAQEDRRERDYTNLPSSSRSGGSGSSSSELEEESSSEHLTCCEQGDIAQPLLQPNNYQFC
T3 sequence (P11362 458-765 C488A/C584S): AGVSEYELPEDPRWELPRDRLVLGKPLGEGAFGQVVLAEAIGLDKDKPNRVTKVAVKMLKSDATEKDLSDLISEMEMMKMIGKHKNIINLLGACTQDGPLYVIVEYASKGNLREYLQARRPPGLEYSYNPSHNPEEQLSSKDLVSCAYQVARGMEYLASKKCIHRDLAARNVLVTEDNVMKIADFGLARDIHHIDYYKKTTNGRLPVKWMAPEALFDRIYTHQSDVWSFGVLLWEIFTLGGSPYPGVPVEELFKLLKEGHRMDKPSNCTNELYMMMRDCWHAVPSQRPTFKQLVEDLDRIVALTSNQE
T5 sequence (P10721 with tags, fused parts or gaps): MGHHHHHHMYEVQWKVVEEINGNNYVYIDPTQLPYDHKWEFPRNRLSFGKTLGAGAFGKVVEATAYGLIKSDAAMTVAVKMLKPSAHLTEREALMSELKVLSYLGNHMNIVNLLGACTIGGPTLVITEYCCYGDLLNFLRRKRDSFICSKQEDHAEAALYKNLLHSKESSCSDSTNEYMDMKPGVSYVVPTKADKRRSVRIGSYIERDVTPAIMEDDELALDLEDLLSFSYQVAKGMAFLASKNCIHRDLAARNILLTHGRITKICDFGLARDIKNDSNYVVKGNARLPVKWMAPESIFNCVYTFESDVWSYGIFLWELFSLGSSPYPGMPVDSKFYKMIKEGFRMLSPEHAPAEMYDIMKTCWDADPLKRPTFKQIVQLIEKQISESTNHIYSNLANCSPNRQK
T2 sequence (P15056 with tags, fused parts or gaps V600E): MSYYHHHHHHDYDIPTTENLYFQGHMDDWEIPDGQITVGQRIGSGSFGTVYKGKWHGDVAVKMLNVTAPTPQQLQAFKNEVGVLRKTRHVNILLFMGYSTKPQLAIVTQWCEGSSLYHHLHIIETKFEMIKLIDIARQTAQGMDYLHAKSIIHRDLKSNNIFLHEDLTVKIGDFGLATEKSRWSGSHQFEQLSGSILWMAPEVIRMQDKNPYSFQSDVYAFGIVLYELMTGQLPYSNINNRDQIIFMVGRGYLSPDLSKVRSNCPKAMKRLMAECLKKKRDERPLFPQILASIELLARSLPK
T4 sequence (P07947 whole entry): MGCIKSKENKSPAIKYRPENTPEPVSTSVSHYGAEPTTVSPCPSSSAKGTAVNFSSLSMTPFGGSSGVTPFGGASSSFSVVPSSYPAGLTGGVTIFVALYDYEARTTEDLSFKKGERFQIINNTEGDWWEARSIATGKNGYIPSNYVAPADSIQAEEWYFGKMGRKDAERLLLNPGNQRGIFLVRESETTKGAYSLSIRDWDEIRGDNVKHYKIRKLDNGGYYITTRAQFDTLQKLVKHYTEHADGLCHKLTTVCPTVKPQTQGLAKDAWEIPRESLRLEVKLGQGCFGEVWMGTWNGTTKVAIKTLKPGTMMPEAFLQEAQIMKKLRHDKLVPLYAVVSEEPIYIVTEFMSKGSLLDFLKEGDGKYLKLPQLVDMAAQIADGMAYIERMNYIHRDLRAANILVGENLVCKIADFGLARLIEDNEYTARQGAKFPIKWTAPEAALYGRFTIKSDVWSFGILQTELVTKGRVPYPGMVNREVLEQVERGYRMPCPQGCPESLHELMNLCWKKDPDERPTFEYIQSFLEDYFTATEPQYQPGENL

Cc1ccc(S(=O)(=O)NCc2c[nH]c3nccc(-c4cccc(C#N)c4)c23)cc1 [Compound P-0072]
not listed: B-Raf
≤ 10 µM: all other assays above

O=C(c1cccc(O)c1)c1c[nH]c2ncccc12 [Compound P-0011]
not listed: Fms | B-Raf
≤ 10 µM: all other assays above

NC(=O)c1ccc(-c2ccnc3[nH]cc(C(=O)c4ccccc4F)c23)cc1 [Compound P-0014]
≤ 10 µM: B-Raf V600E | Yes | EphB2

CS(=O)(=O)c1cccc(-c2cnc3[nH]cc(C(O)c4c(F)ccc(F)c4F)c3c2)c1 (stereo not shown) [Compound P-0020]
not listed: B-Raf V600E | B-Raf
≤ 10 µM: all other assays above

Nc1ccnc2[nH]cc(C(=O)c3ccccc3)c12 [Compound P-0029]
≤ 10 µM: FGFR1 | Yes | Kit | EphB2

Cc1ccc(F)cc1C(=O)c1c[nH]c2ncc(-c3ccc(C(N)=O)cc3)cc12 [Compound P-0050]
not listed: Fms
≤ 10 µM: all other assays above

Cc1ccc(F)cc1C(=O)c1c[nH]c2nccc(-c3cccc(NS(C)(=O)=O)c3)c12 [Compound P-0124]
≤ 10 µM: B-Raf V600E | Yes | EphB2

Cc1ccccc1C(=O)c1c[nH]c2nccc(-c3cccc(NS(C)(=O)=O)c3)c12 [Compound P-0109]
≤ 10 µM: B-Raf V600E | Yes | EphB2

O=C(O)/C=C/c1cccc(-c2cnc3[nH]cc(C(=O)c4ccccc4F)c3c2)c1 [Compound P-0033]
not listed: B-Raf
≤ 10 µM: all other assays above

Oc1cccc(Cc2c[nH]c3ncc(-c4cccs4)cc23)c1F [Compound P-0052, 2-Fluoro-3-(5-thiophen-2-yl-1H-pyrrolo[2,3-b]pyridin-3-ylmethyl)-phenol]
not listed: Fms | Kit
≤ 10 µM: all other assays above

O=C(c1cccc(O)c1)c1c[nH]c2nccc(Cl)c12 [Compound P-0012]
not listed: B-Raf
≤ 10 µM: all other assays above

COc1ccc(C(=O)c2c[nH]c3ncc(-c4cccc(/C=C/C(=O)O)c4)cc23)c(Cl)c1 [Compound P-0015]
≤ 10 µM: B-Raf V600E | FGFR1 | Yes | EphB2

O=C(c1cccc(O)c1)c1c[nH]c2ncc(-c3cccnc3)cc12 [Compound P-0048]
≤ 10 µM: Fms | B-Raf V600E | Yes | EphB2

Nc1cccc(-c2ccnc3[nH]cc(C(=O)c4ccccc4F)c23)c1 [Compound P-0022]
≤ 10 µM: B-Raf V600E | Yes | EphB2

CC(=O)Nc1cccc(-c2ccnc3[nH]cc(C(=O)c4ccccc4F)c23)c1 [Compound P-0070]
≤ 10 µM: B-Raf V600E | Yes | EphB2

Cc1c(O)cccc1C(=O)c1c[nH]c2ncc(Br)cc12 [Compound P-0055, (5-Bromo-1H-pyrrolo[2,3-b]pyridin-3-yl)-(3-hydroxy-2-methyl-phenyl)-methanone]
not listed: Fms | Kit
≤ 10 µM: all other assays above

Cc1ccc(F)cc1C(=O)c1c[nH]c2ncc(-c3cccc(NS(C)(=O)=O)c3)cc12 [Compound P-0028]
not listed: Fms | B-Raf
≤ 10 µM: all other assays above

Cc1ccccc1C(=O)c1c[nH]c2nccc(-c3ccc(C(N)=O)cc3)c12 [Compound P-0017]
not listed: Fms | B-Raf
≤ 10 µM: all other assays above

NC(=O)c1cccc(-c2cnc3[nH]cc(C(=O)c4cccc(O)c4F)c3c2)c1 [Compound P-0034, 3-[3-(2-Fluoro-3-hydroxy-benzoyl)-1H-pyrrolo[2,3-b]pyridin-5-yl]benzamide]
not listed: Yes
≤ 10 µM: all other assays above

NC(=O)c1ccc(-c2ccnc3[nH]cc(C(=O)c4cc(F)ccc4F)c23)cc1 [Compound P-0013]
not listed: Fms | B-Raf
≤ 10 µM: all other assays above

Cc1ccccc1C(=O)c1c[nH]c2nccc(-c3cccc(N)c3)c12 [Compound P-0044]
≤ 10 µM: B-Raf V600E | Yes | EphB2

Oc1ccc(F)c(Cc2c[nH]c3ncc(-c4cccnc4)cc23)c1F [Compound P-0078, 2,4-difluoro-3-(5-pyridin-3-yl-1H-pyrrolo[2,3-b]pyridin-3-ylmethyl)-phenol]
not listed: Yes
≤ 10 µM: all other assays above

Cc1ccc(F)cc1C(=O)c1c[nH]c2ncc(-c3cccc(N)c3)cc12 [Compound P-0040]
not listed: Fms | B-Raf
≤ 10 µM: all other assays above

CS(=O)(=O)Nc1cccc(-c2cnc3[nH]cc(C(=O)c4cccc(O)c4F)c3c2)c1 [Compound P-0038, N-{3-[3-(2-Fluoro-3-hydroxy-benzoyl)-1H-pyrrolo[2,3-b]pyridin-5-yl]-phenyl}-methanesulfonamide]
not listed: Yes
≤ 10 µM: all other assays above
